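Compound exposure: 48 hours, 5 concentrations, 96-well plates. GI50 is the concentration that inhibits growth by half.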 Activity calls are given as the source filed them. No stated cut-off is given here; in the data, active = GI50 up to about 1.1 µM and inactive = higher.
Experiments:
Assay in all cases: NCI tumour cell line growth inhibition, 48 h
[1] = test system: HOP-92
[2] = test system: NCI-H522
[3] = test system: 786-0
[4] = test system: A549
[5] = test system: T47D
[6] = test system: SF-268
[7] = test system: DU-145
[8] = test system: M14
[9] = test system: CCRF-CEM
[10] = test system: ACHN
[11] = test system: TK-10
[12] = test system: IGROV-1
[13] = test system: CAKI-1
[14] = test system: UO-31
[15] = test system: HCT-116
[16] = test system: SF-295
[17] = test system: SNB-75
[18] = test system: RPMI-8226
[19] = test system: SK-MEL-5

Cn1c(N)nc2c(nc(OCc3ccccc3)n2C2OC(CO)C(O)C2O)c1=O (stereo not given)
GI50 [1]: > 100 µM (inactive)
GI50 [2]: > 100 µM (inactive)
GI50 [3]: > 100 µM (inactive)
GI50 [4]: > 100 µM (inactive)
GI50 [5]: > 100 µM (inactive)
GI50 [6]: > 100 µM (inactive)
GI50 [7]: > 100 µM (inactive)
GI50 [8]: > 100 µM (inactive)
GI50 [9]: > 100 µM (inactive)
GI50 [10]: > 100 µM (inactive)
GI50 [11]: > 100 µM (inactive)
GI50 [12]: > 100 µM (inactive)
GI50 [13]: > 100 µM (inactive)
GI50 [14]: > 100 µM (inactive)
GI50 [15]: > 100 µM (inactive)
GI50 [16]: > 100 µM (inactive)
GI50 [17]: > 100 µM (inactive)
GI50 [18]: > 100 µM (inactive)
GI50 [19]: > 100 µM (inactive)

O=[N+]([O-])c1ccc(NN=C2c3ccccc3Cc3ccccc32)c([N+](=O)[O-])c1
GI50 [1]: 20.8 µM (inactive)
GI50 [2]: 2.13 µM (inactive)
GI50 [3]: 10.9 µM (inactive)
GI50 [4]: > 21.1 µM (inactive)
GI50 [5]: 35.8 µM (inactive)
GI50 [6]: 14.3 µM (inactive)
GI50 [7]: > 30.4 µM (inactive)
GI50 [8]: 5.81 µM (inactive)
GI50 [9]: 3.1 µM (inactive)
GI50 [10]: 17.7 µM (inactive)
GI50 [11]: > 100 µM (inactive)
GI50 [12]: 4.97 µM (inactive)
GI50 [13]: 9.51 µM (inactive)
GI50 [14]: > 26.4 µM (inactive)
GI50 [15]: 5.37 µM (inactive)
GI50 [16]: 3.71 µM (inactive)
GI50 [17]: 4.59 µM (inactive)
GI50 [18]: 8.91 µM (inactive)
GI50 [19]: 4.27 µM (inactive)

COC(=O)C#CC1(O)C=CC(=O)C=C1
GI50 [1]: 0.891 µM (active)
GI50 [2]: 0.175 µM (active)
GI50 [3]: 0.483 µM (active)
GI50 [4]: 9.46 µM (inactive)
GI50 [5]: 0.583 µM (active)
GI50 [6]: 0.664 µM (active)
GI50 [7]: 1.38 µM (inactive)
GI50 [8]: 1.25 µM (inactive)
GI50 [9]: 0.106 µM (active)
GI50 [10]: 0.571 µM (active)
GI50 [11]: 1.18 µM (inactive)
GI50 [12]: 0.508 µM (active)
GI50 [13]: 0.209 µM (active)
GI50 [14]: 0.889 µM (active)
GI50 [15]: 0.256 µM (active)
GI50 [16]: 8.69 µM (inactive)
GI50 [17]: 3.9 µM (inactive)
GI50 [18]: 0.687 µM (active)
GI50 [19]: 1.72 µM (inactive)

O=C(O)CCc1ccc(-c2ccccc2)[nH]1
GI50 [1]: > 100 µM (inactive)
GI50 [2]: > 100 µM (inactive)
GI50 [3]: > 100 µM (inactive)
GI50 [4]: > 100 µM (inactive)
GI50 [5]: > 100 µM (inactive)
GI50 [6]: > 100 µM (inactive)
GI50 [7]: > 100 µM (inactive)
GI50 [8]: > 100 µM (inactive)
GI50 [9]: 70.6 µM (inactive)
GI50 [10]: > 100 µM (inactive)
GI50 [11]: > 100 µM (inactive)
GI50 [12]: > 100 µM (inactive)
GI50 [13]: > 100 µM (inactive)
GI50 [14]: > 100 µM (inactive)
GI50 [15]: > 100 µM (inactive)
GI50 [16]: > 100 µM (inactive)
GI50 [17]: > 100 µM (inactive)
GI50 [18]: > 100 µM (inactive)
GI50 [19]: > 100 µM (inactive)

CCc1c[n+]2c(cc1C1=CN3c4ccccc4[C@]45CCN6C/C(=C/CO)[C@H](C[C@H]64)[C@@H]([C@@H]1O)[C@H]35)-c1[nH]c3ccccc3c1CC2
GI50 [1]: > 50 µM (inactive)
GI50 [2]: > 50 µM (inactive)
GI50 [3]: > 50 µM (inactive)
GI50 [4]: > 50 µM (inactive)
GI50 [5]: > 50 µM (inactive)
GI50 [6]: > 50 µM (inactive)
GI50 [7]: > 50 µM (inactive)
GI50 [8]: > 50 µM (inactive)
GI50 [9]: > 50 µM (inactive)
GI50 [10]: > 50 µM (inactive)
GI50 [11]: > 50 µM (inactive)
GI50 [12]: > 50 µM (inactive)
GI50 [13]: > 50 µM (inactive)
GI50 [14]: > 50 µM (inactive)
GI50 [15]: > 50 µM (inactive)
GI50 [16]: > 50 µM (inactive)
GI50 [17]: > 50 µM (inactive)
GI50 [18]: > 50 µM (inactive)
GI50 [19]: > 50 µM (inactive)
